Here are results for 16 compounds from patent US8222202B2 (priority 2006, dated 2012).

Where two headings read alike, the source gives them in different places. Starred links: 1 amine or outer side, 2 acyl side, 3 side chain; linkers in the order of their positions; H or OH if unused. Positions of bridges follow the written chain, without caps; N, C: chain ends. Non-standard residues stand in square brackets, D forms with d. Residues, ends and D or L forms follow the SMILES beside them. *: point of attachment. X3 = CC(C)CCNCCC[C@H](N[*:1])C(=O)[*:2]; Ala(2-furyl) = N[C@@H](Cc1ccco1)C(=O)O; Orn(iPr) = CC(C)NCCC[C@H](N)C(=O)O; 2Thi = N[C@@H](Cc1cccs1)C(=O)O; 3Thi = N[C@@H](Cc1ccsc1)C(=O)O; Aad = N[C@@H](CCCC(=O)O)C(=O)O; NH(3-hydroxypropyl) = OCCCN*; Orn = NCCC[C@H](N)C(=O)O; Dab = NCC[C@H](N)C(=O)O

Experiment [1] deals with T1, human oxytocin (hOT) receptor (Homo sapiens, UniProt P30559).
T1 construct: expressed in transfected cells
T1 sequence (P30559 1-389): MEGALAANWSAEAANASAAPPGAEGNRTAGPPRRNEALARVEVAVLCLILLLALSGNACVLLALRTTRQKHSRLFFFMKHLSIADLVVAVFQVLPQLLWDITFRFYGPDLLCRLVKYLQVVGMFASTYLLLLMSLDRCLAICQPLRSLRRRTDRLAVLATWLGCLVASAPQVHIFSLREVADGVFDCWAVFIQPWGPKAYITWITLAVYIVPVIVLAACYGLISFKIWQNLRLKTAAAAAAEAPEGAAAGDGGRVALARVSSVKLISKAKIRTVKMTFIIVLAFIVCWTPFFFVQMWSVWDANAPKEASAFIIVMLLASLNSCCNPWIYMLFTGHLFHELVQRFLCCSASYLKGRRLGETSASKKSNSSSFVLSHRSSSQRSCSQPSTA
Put plainly: luciferase-based transcriptional reporter assay, selectivity hOT versus hV1a. It counts as cell-based. As to the method: (§1) Agonist activity of compounds on the hV1a receptor was determined in a transcriptional reporter assay by transiently transfecting a hV1a receptor expression DNA into HEK-293 cells in concert with a reporter DNA containing intracellular calcium responsive promoter elements regulating expression of firefly luciferase. See Boss, V., Talpade, D. J., Murphy, T. J. J. Biol. Chem. 1996, May 3; 271(18), 10429-10432 for further guidance on this assay. […] To determine selectivity, compounds were tested in luciferase-based transcriptional reporter assays expressing the human oxytocin (hOT) receptor. Assays for other receptors (hV2, hV1b, rat V1a and rat V2) were also conducted.
(§2) The EC50 value given is the geometric mean expressed in nanomol/L (nM). Selectivity values are given as EC50 ratios.
For orientation: Reporter assays use an easily measured gene product as a stand-in for the process of interest.

Experiment [2] relates to anaesthetised Sprague-Dawley male rats. Put plainly: in vivo duration of action, blood pressure test in anaesthetised rats. More on the design: species or system rat. To be noted: ratio of decay rate of diastolic blood pressure response, AVP 0.1 nmol/kg i.v. to equieffective dose of compound; dibenamine-pretreated rats.
Procedure: Blood pressure tests were carried out on anaesthetised Sprague-Dawley male rats (weighing 270-300 g) with catheterised jugular vein and carotid artery. The catheterised carotid artery was used to continuously monitor blood pressure and the jugular vein was used for administration of the compounds tested. Rats received intravenous injections of dibenamine prior to dosing to enhance their responsiveness to V1a receptor agonists (cf. Dekanski, J., Br. J. Pharmacol. 1952, 7, 567-572). […] Dosing intervals were set as time for the blood pressure to decrease to a stable baseline.
Determination of duration of action was based on the decay rate of diastolic arterial blood pressure transient increase. Specifically, for an exponential decay of plasma concentration, it can be shown that, if the response is measured beyond the distribution phase, the rate of decay near the EC50 is linear and inversely proportional to the elimination half-life (Rowland, M. and Tozer, T. in “Clinical Pharmacokinetics, Concepts and Applications”, 3rd ed., Lippincott Williams & Wilkins, Philadelphia, 1995).
Another experiment concerns the target T2, hV1a receptor (Homo sapiens, UniProt P37288).
T2 construct: expressed in transfected cells; host or cells: HEK-293
The experiment in a line: hV1a receptor transcriptional reporter (luciferase) agonist assay. It counts as cell-based. As to the method: as §1, §2

[3] abbreviates: class symbol, agonist efficacy at hOT receptor compared to AVP.
Setting [4] is: HEK-293 cells transiently transfected with hV1a receptor, 5 hours exposure, geometric mean, read-out: EC50 hV1a receptor.

T2 sequence (P37288 whole entry): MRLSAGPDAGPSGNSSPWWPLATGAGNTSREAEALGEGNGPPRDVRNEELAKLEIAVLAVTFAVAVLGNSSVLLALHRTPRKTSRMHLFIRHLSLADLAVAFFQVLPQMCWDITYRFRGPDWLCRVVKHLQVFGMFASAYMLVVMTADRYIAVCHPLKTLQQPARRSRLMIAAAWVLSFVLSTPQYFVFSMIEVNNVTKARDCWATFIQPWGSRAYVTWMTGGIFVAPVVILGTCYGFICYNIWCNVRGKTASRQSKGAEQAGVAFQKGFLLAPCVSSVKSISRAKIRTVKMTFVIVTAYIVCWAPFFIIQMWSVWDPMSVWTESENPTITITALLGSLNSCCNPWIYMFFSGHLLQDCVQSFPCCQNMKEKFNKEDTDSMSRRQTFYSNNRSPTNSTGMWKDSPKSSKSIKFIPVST

As for `CC[C@H](C)[C@@H]1NC(=O)[C@H](Cc2ccccc2)NC(=O)[C@@H](N)CSSC[C@@H](C(=O)N2CCC[C@H]2C(=O)N[C@@H](CCCNC(C)C)C(=O)NCC(N)=O)NC(=O)[C@H](CC(N)=O)NC(=O)[C@H](CCCC(N)=O)NC1=O` [Compound 1, [Phe^2,Hgn^4,Orn(i-Pr)^8]VT] (H-CFI[Aad](NH2)NCP[Orn(iPr)]G-NH2; disulfide 1-6; N-terminus and C-terminus assumed), in experiment [1] (setting [3]), the “selectivity hOT/hV1a” value is on record as “+ (selective hV1a receptor agonist; EC50 hOT/hV1a ratio not determined due to very low agonist efficacy (<30% compared to AVP) at the hOT receptor)”. Moreover, in experiment [2], the “in vivo duration relative to AVP” value was determined as 1.7.

One may read the EC50 as the concentration at which the effect is half-maximal. With `CC[C@H](C)[C@@H]1NC(=O)[C@H](Cc2ccccc2)NC(=O)[C@@H](N)CSSC[C@@H](C(=O)N2CCC[C@H]2C(=O)N[C@@H](CCCN)C(=O)NCC(N)=O)NC(=O)[C@H](CC(N)=O)NC(=O)[C@H](CC(=O)NCCCO)NC1=O` [Compound 2] (H-CFID(NH(3-hydroxypropyl))NCP[Orn]G-NH2; disulfide 1-6), the “selectivity hOT/hV1a” value in experiment [1] was “+ (key: +: selective hV1a receptor agonist; EC50 hOT/hV1a ratio not determined due to very low agonist efficacy (<30% compared to AVP) at the hOT receptor)”. This compound also registered an EC50 on hV1a receptor of 1.18 nM. Besides, the “in vivo duration relative to AVP” value in experiment [2] was 1.7.

Consider `CCNC(=O)C[C@@H]1NC(=O)[C@H]([C@@H](C)CC)NC(=O)[C@H](Cc2ccccc2)NC(=O)[C@@H](N)CSSC[C@@H](C(=O)N2CCC[C@H]2C(=O)N[C@@H](CCN)C(=O)NCC(N)=O)NC(=O)[C@H](CC(N)=O)NC1=O` [Compound 4, [Phe^2,Asn(Et)^4, Dbu^8]VT] (H-CFID(NHEt)NCP[Dab]G-NH2; disulfide 1-6; N-terminus and C-terminus assumed), for which the “selectivity hOT/hV1a” value in experiment [1] (setting [3]) is given as “+ (selective hV1a receptor agonist; EC50 hOT/hV1a ratio not determined due to very low agonist efficacy (<30% compared to AVP) at the hOT receptor)”. For the same compound, in experiment [2], the “in vivo duration relative to AVP” value was 1.8.

As to `CC[C@H](C)[C@@H]1NC(=O)[C@H](Cc2ccco2)NC(=O)[C@@H](N)CSSC[C@@H](C(=O)N2CCC[C@H]2C(=O)N[C@@H](CCCN)C(=O)NCC(N)=O)NC(=O)[C@H](CC(N)=O)NC(=O)[C@H](CCC(N)=O)NC1=O` [Compound 32] (H-C[Ala(2-furyl)]IQNCP[Orn]G-NH2; disulfide 1-6), the “in vivo duration relative to AVP” value in experiment [2] is 2.1.

For the compound `CC[C@H](C)[C@@H]1NC(=O)[C@H](Cc2cccs2)NC(=O)[C@@H](N)CSSC[C@@H](C(=O)N2CCC[C@H]2C(=O)N[C@@H](CCCN)C(=O)NCC(N)=O)NC(=O)[C@H](CC(N)=O)NC(=O)[C@H](CC(N)=O)NC1=O` [Compound 33] (H-C[2Thi]INNCP[Orn]G-NH2; disulfide 1-6; N-terminus and C-terminus assumed), the “selectivity hOT/hV1a” value in experiment [1] (setting [3]) is “+ (selective hV1a receptor agonist; EC50 hOT/hV1a ratio not determined due to very low agonist efficacy (<30% compared to AVP) at the hOT receptor)”. Moreover, the EC50 at hV1a receptor (setting [4]) is 14.6 nM.

With `CC[C@H](C)[C@@H]1NC(=O)[C@H](Cc2ccsc2)NC(=O)[C@@H](N)CSSC[C@@H](C(=O)N2CCC[C@H]2C(=O)N[C@@H](CCCN)C(=O)NCC(N)=O)NC(=O)[C@H](CC(N)=O)NC(=O)[C@H](CC(N)=O)NC1=O` [Compound 35] (H-C[3Thi]INNCP[Orn]G-NH2; disulfide 1-6), the “selectivity hOT/hV1a” value in experiment [1] (setting [3]) is reported as “+ (selective hV1a receptor agonist; EC50 hOT/hV1a ratio not determined due to very low agonist efficacy (<30% compared to AVP) at the hOT receptor)”. For the same compound, on hV1a receptor (setting [4]), the EC50 is 7.3 nM.

With `CC[C@H](C)[C@@H]1NC(=O)[C@H](Cc2cccs2)NC(=O)[C@@H](N)CSSC[C@@H](C(=O)N2CCC[C@H]2C(=O)N[C@@H](CCN)C(=O)NCC(N)=O)NC(=O)[C@H](CC(N)=O)NC(=O)[C@H](CC(N)=O)NC1=O` [Compound 36] (H-C[2Thi]INNCP[Dab]G-NH2; disulfide 1-6; N-terminus and C-terminus assumed), the “selectivity hOT/hV1a” value in experiment [1] (setting [3]) is “+ (selective hV1a receptor agonist; EC50 hOT/hV1a ratio not determined due to very low agonist efficacy (<30% compared to AVP) at the hOT receptor)”. Further, on hV1a receptor (setting [4]), the EC50 came out at 11.5 nM.

In the case of `CC[C@H](C)[C@@H]1NC(=O)[C@H](Cc2ccsc2)NC(=O)[C@@H](N)CSSC[C@@H](C(=O)N2CCC[C@H]2C(=O)N[C@@H](CCN)C(=O)NCC(N)=O)NC(=O)[C@H](CC(N)=O)NC(=O)[C@H](CC(N)=O)NC1=O` [Compound 37] (H-C[3Thi]INNCP[Dab]G-NH2; disulfide 1-6; N-terminus and C-terminus assumed), in experiment [1] (setting [3]), the “selectivity hOT/hV1a” value is given as “+ (selective hV1a receptor agonist; EC50 hOT/hV1a ratio not determined due to very low agonist efficacy (<30% compared to AVP) at the hOT receptor)”. The EC50 on hV1a receptor (setting [4]) is 7.45 nM.

`CC[C@H](C)[C@@H]1NC(=O)[C@H](Cc2ccco2)NC(=O)[C@@H](N)CSSC[C@@H](C(=O)N2CCC[C@H]2C(=O)N[C@@H](CCCN)C(=O)NCC(N)=O)NC(=O)[C@H](CC(N)=O)NC(=O)[C@H](CC(N)=O)NC1=O` [Compound 38] (H-C[Ala(2-furyl)]INNCP[Orn]G-NH2; disulfide 1-6; N-terminus and C-terminus assumed): in experiment [1] (setting [3]), the “selectivity hOT/hV1a” value is reported as “+ (selective hV1a receptor agonist; EC50 hOT/hV1a ratio not determined due to very low agonist efficacy (<30% compared to AVP) at the hOT receptor)”. Also, the EC50 on hV1a receptor (setting [4]) turned out to be 10.1 nM.

With `CC[C@H](C)[C@@H]1NC(=O)[C@H](Cc2ccco2)NC(=O)[C@@H](N)CSSC[C@@H](C(=O)N2CCC[C@H]2C(=O)N[C@@H](CCCNC(C)C)C(=O)NCC(N)=O)NC(=O)[C@H](CC(N)=O)NC(=O)[C@H](CC(N)=O)NC1=O` [Compound 42] (H-C[Ala(2-furyl)]INNCP[Orn(iPr)]G-NH2; disulfide 1-6), the “selectivity hOT/hV1a” value in experiment [1] is on record as “+ (key: +: selective hV1a receptor agonist; EC50 hOT/hV1a ratio not determined due to very low agonist efficacy (<30% compared to AVP) at the hOT receptor)”. Moreover, the EC50 at hV1a receptor stood at 6.25 nM.

For the compound `CC[C@H](C)[C@@H]1NC(=O)[C@H](Cc2cccs2)NC(=O)[C@@H](N)CSSC[C@@H](C(=O)N2CCC[C@H]2C(=O)N[C@@H](CCCNC(C)C)C(=O)NCC(N)=O)NC(=O)[C@H](CC(N)=O)NC(=O)[C@H](CC(N)=O)NC1=O` [Compound 43] (H-C[2Thi]INNCP[Orn(iPr)]G-NH2; disulfide 1-6; N-terminus and C-terminus assumed), the “selectivity hOT/hV1a” value in experiment [1] (setting [3]) was “+ (selective hV1a receptor agonist; EC50 hOT/hV1a ratio not determined due to very low agonist efficacy (<30% compared to AVP) at the hOT receptor)”. Moreover, at hV1a receptor (setting [4]), the EC50 is 13.7 nM.

With `CC[C@H](C)[C@@H]1NC(=O)[C@H](Cc2ccco2)NC(=O)[C@@H](N)CSSC[C@@H](C(=O)N2CCC[C@H]2C(=O)N[C@@H](CCN)C(=O)NCC(N)=O)NC(=O)[C@H](CC(N)=O)NC(=O)[C@H](CC(N)=O)NC1=O` [Compound 44] (H-C[Ala(2-furyl)]INNCP[Dab]G-NH2; disulfide 1-6; N-terminus and C-terminus assumed), the “selectivity hOT/hV1a” value in experiment [1] (setting [3]) was “+ (selective hV1a receptor agonist; EC50 hOT/hV1a ratio not determined due to very low agonist efficacy (<30% compared to AVP) at the hOT receptor)”. Also, the EC50 at hV1a receptor (setting [4]) was 14.5 nM.

As to `CC[C@H](C)[C@@H]1NC(=O)[C@H](Cc2ccccc2)NC(=O)[C@@H](N)CSSC[C@@H](C(=O)N2CCC[C@H]2C(=O)N[C@@H](CCCNCCC(C)C)C(=O)NCC(N)=O)NC(=O)[C@H](CC(N)=O)NC(=O)[C@H](CCC(N)=O)NC1=O` [Compound 45] (H-CFIQNCP[X3]G-NH2; disulfide 1-6; N-terminus and C-terminus assumed), the “selectivity hOT/hV1a” value in experiment [1] (EC50 ratio) stood at 18. Besides, the EC50 on hV1a receptor turned out to be 1.65 nM.

With `CCNC(=O)C[C@@H]1NC(=O)[C@H]([C@@H](C)CC)NC(=O)[C@H](Cc2ccccc2)NC(=O)[C@@H](N)CSSC[C@@H](C(=O)N2CCC[C@H]2C(=O)N[C@@H](CCCN)C(=O)NCC(N)=O)NC(=O)[C@H](CC(N)=O)NC1=O` [Compound 48] (H-CFID(NHEt)NCP[Orn]G-NH2; disulfide 1-6; N-terminus and C-terminus assumed), in experiment [1] (setting [3]), the “selectivity hOT/hV1a” value is “+ (selective hV1a receptor agonist; EC50 hOT/hV1a ratio not determined due to very low agonist efficacy (<30% compared to AVP) at the hOT receptor)”. Further, the EC50 on hV1a receptor (setting [4]) was 5.7 nM.

On to `CC[C@H](C)[C@@H]1NC(=O)[C@H](Cc2ccccc2)NC(=O)[C@@H](N)CSSC[C@@H](C(=O)N2CCC[C@H]2C(=O)N[C@@H](CCCN)C(=O)NCC(N)=O)NC(=O)[C@H](CC(N)=O)NC(=O)[C@H](CC(=O)NC)NC1=O` [Compound 49] (H-CFID(NHMe)NCP[Orn]G-NH2; disulfide 1-6; N-terminus and C-terminus assumed), for which the “selectivity hOT/hV1a” value in experiment [1] (setting [3]) is given as “+ (selective hV1a receptor agonist; EC50 hOT/hV1a ratio not determined due to very low agonist efficacy (<30% compared to AVP) at the hOT receptor)”. For the same compound, the EC50 at hV1a receptor (setting [4]) was found to be 3.58 nM.

Take “[Phe2,Orn8]OT [[Phe2, Orn8]OT, reference compound]”: in experiment [1] (EC50 ratio), the “selectivity hOT/hV1a” value was determined as 60. Further, in experiment [2], the “in vivo duration relative to AVP” value was found to be 1.9.
